Results reported in patent US8394829B2, “Bi-functional quinoline analogs” (Gilead Sciences, Inc., priority 2010, dated 2013).

What was measured:
[1] = target: T1, human recombinant beta-2 adrenoreceptors (Homo sapiens, UniProt P07550); assay: Beta-2 adrenoceptor binding assay ([3H](−)CGP-12177 displacement); details: CHO cells expressing human beta-2 adrenoreceptors, [3H](−)CGP-12177 0.3 nM, 120 min
T1 construct: expressed in transfected cells; host or cells: CHO cells
Method: Beta-2 Adrenoceptor Binding Assay
Test compounds were incubated for 120 min with Chinese hamster oocyte (CHO) cells expressing the human recombinant beta-2 adrenoreceptors. Binding of test compounds to the beta-2 adrenoreceptors was determined by measuring the displacement of the radiolabeled ligand [^3H](−)CGP-12177 (0.3 nM) from the receptor measured by a scintillation counting. Concentration response curves were generated for test compounds and the IC50 (molar concentration of the compound which produced 50% inhibition for the maximal response for that compound) was determined. These assays were performed using a protocol based on the original description of the assay by Joseph et al., (2004) Naun.-Sch. Arch. Pharm.; 369:525-532.
IC50 determinations for the compounds presented above are seen in the second column of Table 1 (Beta 2 IC50).

[2] = system: LPS-induced TNF-α release from human peripheral blood mononuclear cells (PBMC); assay: Inhibition of LPS-induced TNF-α release from human PBMC; type: cell-based; details: LPS 0.4 ng/mL, 6 h, presence or absence of ICI-118551 not given
Source text: Inhibition of Lipopolysaccharide (LPS)-Induced Tumour Necrosis Factor Alpha (TNF-α) Release from Human Peripheral Blood Mononuclear Cells (PBMC)
Human whole blood was drawn from donors and cell purification initiated within two hours. Peripheral blood mononuclear cells (PBMC) were purified using a standard Ficoll gradient purification technique and aliquoted at a concentration of 100,000 cells/well in 96 well plates. Beta-2 adrenoreceptor agonists are also anti-inflammatory for some immune cells expressing the receptor and in this assay they can inhibit tumor necrosis factor-alpha (TNF-α) production. Therefore PBMC were pre-incubated for 30 min in the presence of the beta-2 adrenoreceptor antagonist ICI-118551 [3-(isopropylamino)-1-[(7-methyl-4-indanyl)oxy]butan-2-ol] (10 μM) to determine the PDE4 directed activity of test compounds, and in the absence of ICI-118551 for the combined PDE4 and beta-2 receptor directed activity. Test compounds were dissolved in DMSO and diluted in buffer (final DMSO concentration of 0.1% v/v) and were then added to the cell suspensions and pre-incubated for a further 1 h at 37° C. LPS solution was then added (0.4 ng/mL) and the cells incubated for a further 6 h. At the end of the incubation period the cell supernatants were collected and TNF-α was measured using a Procarta Cytokine Assay Kit (Affymetrix, Santa Clara, Calif.) according to the manufacturers' instructions. Data were analyzed using MiraiBio Masterplex QT v4.0 software (MasterPlex Version 1.0.1.18 Copyright 2008, Hitachi Software Engineering Co., Ltd) and used to extrapolate Mean Fluorescence Intensity (MFI) into concentrations of TNF-α and mean values from replicate wells were determined. Inhibition curves were plotted using a nonlinear curve fit employing a single-site binding model to determine the IC50 value for each test compound in the presence or absence of ICI-118551 using GraphPad Prism 5 for Windows, version 5.02 (GraphPad Software, San Diego Calif.).
EC50 determinations for the compounds presented above are seen in the fourth column of Table 1 (PBMC TNF EC50).

[3] = target: T1, human recombinant beta-2 adrenoreceptors; assay: Functional agonism of human recombinant beta-2 adrenoreceptors expressed in CHO cells (cAMP HTRF); type: cell-based; details: CHO cells expressing human beta-2 adrenoreceptors, cAMP elevation, 30 min
Method: Functional Agonism of Human Recombinant Beta-2 Adrenoreceptors Expressed in Chinese Hamster Oocytes (CHO)
Test compounds were incubated for 30 min with CHO cells expressing the human recombinant beta-2 adrenoreceptors. Agonism of the receptor was measured by the elevation of intracellular cyclic-AMP over control levels detected using a homogeneous time resolved fluorescence (HTRF) format. Compounds were determined to be “full” or “partial” agonists based on the maximum level of cAMP accumulated compared to the control compound isoproterenol which is a full agonist in this assay system. Concentration response curves were generated for test compounds and the EC50 (molar concentration of the agonist which produced 50% of the maximal response for that compound) was determined. These assays were performed using a protocol based on the original description of the assay by Baker, J. G. (2005) Brit. J. Pharmacol.; 144:317-322.
EC50 determinations for the compounds presented above are seen in the third column of Table 1 (Beta 2 EC50).

Human recombinant PDE4B2 = target: T2, Human recombinant PDE4B2 (Homo sapiens, UniProt Q07343); assay: Inhibition of PDE4B4 enzyme activity (PDE Glo Assay); type: biochemical; details: human recombinant PDE4B2, 50 nM cAMP; read-out: PDE4 IC50
T2 construct: purchased BPS Bioscience
Method: Biological Examples Inhibition of PDE4B4 Enzyme Activity
The inhibitory activity of test compounds were determined using the PDE Glo Assay (Promega, V1361). The PDE-Glo Reaction Buffer was prepared (1 mL 5× buffer+4 mL water) and 150 nM solution of test compound dissolved in the Reaction Buffer, followed by 1:3 serial dilutions into Reaction Buffer. […] Human recombinant PDE4B2 (BPS Bioscience) was added to test compound in Reaction Buffer at a concentration of 0.12 nM per reaction. The enzyme and test compound were pre-incubated together at rt for 10 min. 50 nM of the enzyme substrate cAMP was then added to initiate the enzyme reaction, with the reaction terminated after one hour. Termination Buffer (1 mL 5× termination buffer+3.9 mL water+100 μL of 100 mM IBMX (ICN Chemicals, in DMSO)), was added to each reaction well to terminate the reaction. Detection Buffer (1 mL 5×PDE-Glo Detection buffer+3.96 mL water+40 μL PKA (supplied in kit)) was added to the cAMP-enzyme-test compound mix and this secondary reaction proceeded for 20 minutes at rt. An equal volume of Kinase Glo Reagent was then added to the reaction mixture and after 10 min luminescence was measured using a luminometer (EnVision, 0.1 sec read for luminescence). Luminescence values were […] related to levels of cAMP in the reaction mixture. Data were plotted as relative light units (RLU) versus test compound concentration and the IC50 determined using GraphPad Prism 5.0, using a nonlinear curve fit in a single-site binding model.
IC50 determinations for the compounds presented above are seen in the first column of Table 1 (PDE4IC50).

T1 sequence (P07550 whole entry): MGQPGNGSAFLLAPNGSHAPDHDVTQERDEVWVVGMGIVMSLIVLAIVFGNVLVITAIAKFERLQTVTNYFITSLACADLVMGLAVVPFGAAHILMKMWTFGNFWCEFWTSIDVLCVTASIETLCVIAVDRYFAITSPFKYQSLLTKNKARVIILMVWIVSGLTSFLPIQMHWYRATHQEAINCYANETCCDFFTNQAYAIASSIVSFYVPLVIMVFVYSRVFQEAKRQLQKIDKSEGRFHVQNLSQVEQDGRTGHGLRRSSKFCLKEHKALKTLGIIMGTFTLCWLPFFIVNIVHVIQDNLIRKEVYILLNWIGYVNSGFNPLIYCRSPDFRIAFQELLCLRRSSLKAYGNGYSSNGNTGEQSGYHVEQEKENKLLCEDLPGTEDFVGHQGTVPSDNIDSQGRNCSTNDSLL
T2 sequence (Q07343 1-564 isoform Q07343-2): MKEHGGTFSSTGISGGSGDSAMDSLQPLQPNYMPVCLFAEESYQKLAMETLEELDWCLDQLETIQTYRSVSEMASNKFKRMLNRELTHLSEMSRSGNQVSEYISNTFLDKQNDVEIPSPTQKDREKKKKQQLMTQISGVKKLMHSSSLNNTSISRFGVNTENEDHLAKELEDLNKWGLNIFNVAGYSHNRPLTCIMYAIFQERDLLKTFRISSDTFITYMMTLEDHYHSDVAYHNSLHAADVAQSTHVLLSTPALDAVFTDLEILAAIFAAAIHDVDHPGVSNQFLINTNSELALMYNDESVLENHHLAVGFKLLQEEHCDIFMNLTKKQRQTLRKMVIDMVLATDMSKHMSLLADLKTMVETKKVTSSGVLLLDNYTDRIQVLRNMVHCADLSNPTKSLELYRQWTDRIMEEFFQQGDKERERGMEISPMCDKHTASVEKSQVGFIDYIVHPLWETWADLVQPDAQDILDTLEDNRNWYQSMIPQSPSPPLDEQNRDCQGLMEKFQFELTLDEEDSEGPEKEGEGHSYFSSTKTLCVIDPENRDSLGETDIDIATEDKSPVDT

COc1cccc(Nc2c(C(N)=O)cnc3c(C)cc(S(=O)(=O)c4cccc(C(=O)N5CCN(CCCCCCNC[C@H](O)c6ccc(O)c7[nH]c(=O)ccc67)CC5)c4)cc23)c1 [Example 16, (R)-6-((3-(4-(6-((2-hydroxy-2-(8-hydroxy-2-oxo-1,2-dihydroquinolin-5-yl)ethyl)amino)hexyl)piperazine-1-carbonyl)phenyl)sulfonyl)-4-((3-methoxyphenyl)amino)-8-methylquinoline-3-carboxamide] was tested. Which IC50 [1] did it give?
Its IC50 is greater than 300 nM.

And the EC50 [2]?
The EC50 was less than 100 nM.

And the EC50 [3]?
Its EC50 is less than 300 nM.

What about the IC50 (Human recombinant PDE4B2) of the same compound?
Its IC50 is less than 100 nM.

COc1cccc(Nc2c(C(N)=O)cnc3c(C)cc(S(=O)(=O)c4cccc(C(=O)N5CCN(C(=O)c6cccc(CC(C)NC[C@H](O)c7ccc(O)c8[nH]c(=O)ccc78)c6)CC5)c4)cc23)c1 (stereo partly drawn) [Example 17, 6-((3-(4-(3-(2-(((R)-2-hydroxy-2-(8-hydroxy-2-oxo-1,2-dihydroquinolin-5-yl)ethyl)amino)propyl)benzoyl)piperazine-1-carbonyl)phenyl)sulfonyl)-4-((3-methoxyphenyl)amino)-8-methylquinoline-3-carboxamide] was tested. Which IC50 [1] did it give?
Its IC50 is less than 100 nM.

What about the EC50 [2] of the same compound?
Its EC50 is less than 100 nM.

What about the EC50 [3] of the same compound?
The EC50 was less than 100 nM.

What about the IC50 (Human recombinant PDE4B2) of the same compound?
The IC50 was less than 100 nM.

Which IC50 [1] does the source give for COc1cccc(Nc2c(C(N)=O)cnc3c(C)cc(S(=O)(=O)c4cccc(C(=O)N5CCN(C(=O)c6cccc(CC(C)(C)NC[C@H](O)c7ccc(O)c8[nH]c(=O)ccc78)c6)CC5)c4)cc23)c1 [Example 18, (R)-6-((3-(4-(3-(2-((2-hydroxy-2-(8-hydroxy-2-oxo-1,2-dihydroquinolin-5-yl)ethyl)amino)-2-methylpropyl)benzoyl)piperazine-1-carbonyl)phenyl)sulfonyl)-4-((3-methoxyphenyl)amino)-8-methylquinoline-3-carboxamide] here?
The IC50 was less than 100 nM.

And the EC50 [2]?
Its EC50 is less than 100 nM.

What about the EC50 [3] of the same compound?
Its EC50 is less than 100 nM.

What about the IC50 (Human recombinant PDE4B2) of the same compound?
The IC50 was less than 100 nM.

What does the source list for COc1cccc(Nc2c(C(N)=O)cnc3c(C)cc(S(=O)(=O)c4cccc(CN(C)C(=O)c5cccc(CC(C)(C)NC[C@H](O)c6ccc(O)c7[nH]c(=O)ccc67)c5)c4)cc23)c1 [Example 19, (R)-6-((3-((3-(2-((2-hydroxy-2-(8-hydroxy-2-oxo-1,2-dihydroquinolin-5-yl)ethyl)amino)-2-methylpropyl)-N-methylbenzamido)methyl)phenyl)sulfonyl)-4-((3-methoxyphenyl)amino)-8-methylquinoline-3-carboxamide]?
IC50 [1]: < 100 nM; EC50 [2]: < 100 nM; EC50 [3]: < 100 nM; IC50 (Human recombinant PDE4B2): < 100 nM

COc1cccc(Nc2c(C(N)=O)cnc3c(C)cc(S(=O)(=O)c4cccc(C(=O)Nc5ccc(-c6ccc(CNC[C@H](O)c7ccc(O)c8[nH]c(=O)ccc78)cc6)cc5)c4)cc23)c1 [Example 20, (R)-6-((3-((4′-(((2-hydroxy-2-(8-hydroxy-2-oxo-1,2-dihydroquinolin-5-yl)ethyl)amino)methyl)-[1,1′-biphenyl]-4-yl)carbamoyl)phenyl)sulfonyl)-4-((3-methoxyphenyl)amino)-8-methylquinoline-3-carboxamide] was tested. Which IC50 [1] did it give?
The IC50 was less than 100 nM.

What about the EC50 [2] of the same compound?
The EC50 was less than 100 nM.

What about the EC50 [3] of the same compound?
The EC50 was less than 100 nM.

And the IC50 (Human recombinant PDE4B2)?
Its IC50 is less than 100 nM.

Which IC50 [1] does the source give for COc1cccc(Nc2c(C(N)=O)cnc3c(C)cc(S(=O)(=O)c4cccc(C(=O)NCCCCCCNC[C@H](O)c5cc(O)cc6c5OCC(=O)N6)c4)cc23)c1 [Example 23, (R)-6-((3-((6-((2-hydroxy-2-(6-hydroxy-3-oxo-3,4-dihydro-2H-benzo[b][1,4]oxazin-8-yl)ethyl)amino)hexyl)carbamoyl)phenyl)sulfonyl)-4-((3-methoxyphenyl)amino)-8-methylquinoline-3-carboxamide] here?
Its IC50 is less than 100 nM.

What about the EC50 [2] of the same compound?
Its EC50 is less than 100 nM.

What about the EC50 [3] of the same compound?
The EC50 was less than 100 nM.

What about the IC50 (Human recombinant PDE4B2) of the same compound?
The IC50 was less than 100 nM.

How did the IC50 [1] turn out when COc1cccc(Nc2c(C(N)=O)cnc3c(C)cc(S(=O)(=O)c4cccc(C(=O)N(C)CCOc5ccc(CCNC[C@H](O)c6ccc(O)c7[nH]c(=O)ccc67)cc5)c4)cc23)c1 [Example 25, (R)-6-((3-((2-(4-(2-((2-hydroxy-2-(8-hydroxy-2-oxo-1,2-dihydroquinolin-5-yl)ethyl)amino)ethyl)phenoxy)ethyl)(methyl)carbamoyl)phenyl)sulfonyl)-4-((3-methoxyphenyl)amino)-8-methylquinoline-3-carboxamide] was run?
Its IC50 is greater than 300 nM.

And the EC50 [2]?
The EC50 was less than 100 nM.

What about the EC50 [3] of the same compound?
The EC50 was less than 100 nM.

What about the IC50 (Human recombinant PDE4B2) of the same compound?
The IC50 was less than 100 nM.

Which results are given for COc1cccc(Nc2c(C(N)=O)cnc3c(C)cc(S(=O)(=O)c4cccc(C(=O)NCCCCCCNC[C@H](O)c5ccc(O)c(NC=O)c5)c4)cc23)c1 [Example 27, (R)-6-[[3-[[6-[[2-(3-Formamido-4-hydroxyphenyl)-2-hydroxyethyl]amino]hexyl]carbamoyl]phenyl]sulfonyl]-4-((3-methoxyphenyl)amino]-8-methylquinoline-3-carboxamide]?
IC50 [1]: < 100 nM; EC50 [2]: < 100 nM; EC50 [3]: < 100 nM; IC50 (Human recombinant PDE4B2): < 100 nM

COc1cccc(Nc2c(C(N)=O)cnc3c(C)cc(S(=O)(=O)c4cccc(C(=O)N(C)CCCCCCNC[C@H](O)c5ccc(O)c(NC=O)c5)c4)cc23)c1 [Example 28, (R)-6-((3-((6-((2-(3-formamido-4-hydroxyphenyl)-2-hydroxyethyl)amino)hexyl)(methyl)carbamoyl)phenyl)sulfonyl)-4-((3-methoxyphenyl)amino)-8-methylquinoline-3-carboxamide] was tested. Which IC50 [1] did it give?
Its IC50 is greater than 300 nM.

What about the EC50 [2] of the same compound?
The EC50 was less than 100 nM.

What about the EC50 [3] of the same compound?
Its EC50 is less than 100 nM.

What about the IC50 (Human recombinant PDE4B2) of the same compound?
The IC50 was less than 100 nM.

For COc1cccc(Nc2c(C(N)=O)cnc3c(C)cc(S(=O)(=O)c4cccc(C(=O)NCCCCCCNC[C@H](O)c5ccc(O)c6c5OCC(=O)N6)c4)cc23)c1 [Example 29, (R)-6-((3-((6-((2-hydroxy-2-(5-hydroxy-3-oxo-3,4-dihydro-2H-benzo[b][1,4]oxazin-8-yl)ethyl)amino)hexyl)carbamoyl)phenyl)sulfonyl)-4-((3-methoxyphenyl)amino)-8-methylquinoline-3-carboxamide], which IC50 [1] is on record?
The IC50 was less than 100 nM.

What about the EC50 [2] of the same compound?
The EC50 was less than 100 nM.

And the EC50 [3]?
Its EC50 is less than 100 nM.

And the IC50 (Human recombinant PDE4B2)?
Its IC50 is less than 100 nM.
